Patent US20250248393A1, “METHOD OF RELEASING A SEMIOCHEMICAL IN THE ENVIRONEMENT BY PASSIVE DIFFUSION, SYSTEM AND MEANS, ESPECIALLY STICKS, TO THIS END, AND USES THEREOF” (SIGNS, priority 2024, published 2025)

Experiments:
Format in all cases: physicochemical
[1] = F3P PCDS direct diffusion (SPME GC/MS); conditions: 40 mL, 6 capillaries
Procedure: For this study, three diffusers each containing 40 mL of product and 6 capillaries were prepared and diffused. Every Monday, Wednesday and Friday, pheromone diffusion in the air was monitored by GC/MS and SPME (Solid Phase Micro Extraction) until no liquid remained.
Experimentally, the device studied was placed in a closed space (in our case an upturned aquarium) containing the SPME fiber. The set-up si the same as the set-up shown in Section D/above and in FIG. 24. The SPME fiber was left for 2 hours to give the molecules time to absorb onto the fiber, then the fiber was injected into the GC/MS instrument for analysis. Pheromone diffusion over time was then studied.
Same elements as in Section E/V. C. are reproduced in this section.

[2] = Direct diffusion of diffuser blocks (SPME GC/MS); conditions: despecified pheromone 2%, 4 weeks
Procedure: Analyses were carried out using gas chromatography (GC) coupled to a mass spectrometer (MS) detector, a technique commonly referred to as GCMS. The molecules of interest were extracted using the Solid Phase Micro-Extraction (SPME) technique. The instrument used was the following: QP2010SE® from Shimadzu (See FIG. 4).
AOC 6000® automatic feeder • Extraction/SPME fiber: polyacrylate/Fused silica (85 μm), 23 Ga. • Adsorption time: 2 hours (exposure time of fiber above block) (See FIG. 4) • Desorption time: 30 minutes (fiber exposure time in injector) • Fiber-block distance: 2 cm • Injection: split/splitless injector • Temperature: 250° C., split 50 mode. • Separation: ZB-FFAP® column (Phénomenex), length: 30 m, diameter: 250 μm, film thickness: […]
• Carrier gas: Helium (He) • Analysis time: 18 min (not including time to return to equilibrium between each analysis injection • Detection: mass spectrometer with electron impact source/analyzer: quadrupole. • Source temperature: 200° C. • Interface temperature: 250° C. • Scan m/z 50 to m/z 500 • SIM with ions 55, 66 and 74.
Analyses were carried out in triplicate to verify reproducibility of results.
With the SPME method, results are evaluated by measuring the chromatographic peak area. The data have been plotted on diffusion curve (see FIGS. 5 and 6).

[3] = Ratios of molecules diffused through the sticks over time
Procedure: Furthermore, as small molecules diffuse more, it happens that they lose intensity over the course of the study, so the ratios are different 24 hours after immersing the sticks in the liquid and 21 days later. Here are the ratios for each pheromone studied at the start of the study and at the end.

[4] = Indirect assay of diffuser blocks (GC/FID, pheromone remaining in the block); conditions: despecified pheromone
Procedure: Analyses were carried out using the gas chromatography (GC) technique with a flame ionization detector (FID), commonly known as GC/FID. The instrument used was the Shimadzu GC2025.® • Injection: Quantity injected: 1 μL, split 50:1, temperature: 230° C. • Separation: DB-WAX column (Agilent), length: 20 m, diameter: 180 μm, film thickness: […] • Carrier gas: Helium (He) • Analysis time: 11.50 min (not including time to return to equilibrium between each analysis) injection). • Detection: FID, temperature: 250° C., flow rates: H2: 40 mL/min, Air: 400 mL/min, Nitrogen (make-up): 30 mL/min. To obtain a representative sample, “cores” were drilled at various positions in the block and then collected. 2.5 g of gel were weighed into a 50 mL volumetric flask and the volume made up to the beginning of the neck of the flask with acetone. The flask was then placed in an ultrasonic bath for one hour until the block was dissolved (a white precipitate was obtained), then acetone was added to the mark. An aliquot of this solution was placed in a syringe fitted with a syringe filter and filtered to obtain a translucent solution. The resulting solution was transferred to a 1.5 mL GC vial for analysis. The assays were carried out using a calibration range.

[5] = F3 migration along the stick (top 1 cm, GC/MS); conditions: F3, five sticks
Procedure: Three devices containing 40 mL of F3 feline facial pheromone product and five […] sticks were prepared and left on diffusion. A t=1 day, T=3 days, T=10 days, T=15 days and T=22 days after preparation of the devices, one stick was taken on each device and 1 cm of the top of each stick was cut, then extracted with acetone 1 h in an ultrasonic bath and analysed by gas chromatography coupled with mass spectrometry (GC/MS). The same analytical parameters were used for the study C with a liquid injection (injected quantity: […]) Blank analysis and matrix blank analysis were also performed.

[6] = F3 block stability study in sodium stearate aqueous gel (GC-MS); conditions: after 3 months
Procedure: Aqueous sodium stearate gel is a method used by SIGNS for several of the pheromones it markets (pork, poultry, rabbit). The sodium stearate matrix is cast at high temperature (60° C.) and contains 2% pheromone. In this study, matrix samples are taken by coring, and the active ingredients are extracted by apolar solvent, using the SIGNS-validated quality control method. Extracts are analyzed by GC-MS. […] Given this observation, formula F3 cannot be used in blocks for passive diffusion, so a change of galenic formulation is necessary.

[7] = Indirect assay of rod diffuser solution (GC/FID); conditions: stick diffuser solution, despecified pheromone
Procedure: Solution integrity was checked at each analysis time. Before each indirect assay, the vial was weighed to visualize mass loss over time. Each vial contained six sticks. • Specifications: the solution must lose mass over time. • Result: Compliant—See FIG. 9 This is the same analytical method as for the diffuser block study, only the sample preparation differs. 1.25 g of solution were weighed into a 25 mL volumetric flask and the volume made up to the mark with acetone. The resulting solution is transferred to a 1.5 mL GC vial for analysis. This is exactly the same calibration range as for the diffuser block study.

[8] = DAP, 24 h after immersion of sticks
[9] = DAP, 21 days after immersion of sticks (empty tank)
[10] = Despecified pheromone (Core), 5 days after immersion of the sticks
[11] = Despecified pheromone (Core), 21 days after immersion of sticks (empty tank)
[12] = F3, 24 h after immersion of sticks
[13] = F3, 21 days after immersion of sticks (empty tank)
[14] = F3P, 24 h after immersion of the sticks
[15] = F3P, 21 days after immersion of sticks (empty tank)

Row | direct diffusion over time [1] | direct diffusion from the diffuser block [2] | ratio of molecules diffused through the sticks [3, 8] | ratio of molecules diffused through the sticks [3, 9] | ratio of molecules diffused through the sticks [3, 10] | ratio of molecules diffused through the sticks [3, 11] | ratio of molecules diffused through the sticks [3, 12] | ratio of molecules diffused through the sticks [3, 13] | ratio of molecules diffused through the sticks [3, 14] | ratio of molecules diffused through the sticks [3, 15] | % of the active ingredient in the pheromone ([4]; day 0) | % of the active ingredient in the pheromone ([4]; day 7) | % of the active ingredient in the pheromone ([4]; day 14) | % of the active ingredient in the pheromone ([4]; day 21) | % of the active ingredient in the pheromone ([4]; day 28) | stability in the block [6] | % of the active ingredient in the pheromone ([7]; day 0) | % of the active ingredient in the pheromone ([7]; day 7) | % of the active ingredient in the pheromone ([7]; day 14) | Compound | quantity on the top of the stick over time [5] | also measured
1 | increased over time | lowest intensity | 2 % (w/w) | 3.5 % (w/w) | 3 % (w/w) | 4 % (w/w) | 2 % (w/w) | 4 % (w/w) | 0.6 % (w/w) | 2 % (w/w) | 30.4% | 30.6% | 30.6% | 30.7% | 30.7% | remained stable | 30.8% | 30.8% | 30.7% | CCCCCCCC/C=C\CCCCCCCC(=O)OC [methyl oleate, methyl (Z)-octadec-9-enoate] | more pronounced increase of their quantities over time | relative quantity on the top of the stick [5]: major compound found on the top of the stick; % of the active ingredient in the pheromone ([7]; day 21): 30.8%
2 | increased over time | diffuse better | 9.5 % (w/w) | 12 % (w/w) | 19 % (w/w) | 22 % (w/w) | 3 % (w/w) | 5 % (w/w) | 1 % (w/w) | 3.4 % (w/w) | 27.2% | 27.2% | 27.1% | 27.1% | 27.1% | remained stable | 27.3% | 27.3% | 27.2% | CCCCCCCCCCCCCCCC(=O)OC [methyl palmitate, methyl hexadecanoate] | more pronounced increase of their quantities over time | % of the active ingredient in the pheromone ([7]; day 21): 26.2%
